Measured values published in PubChem BioAssay AID1918939 (Molecular Pharmacology Branch, DTP, NCI, 2023).
Values joined by “and” are separate entries in the source; they are usually repeats but may differ in a detail not shown here. Equal entries are not always repeated.

Test system: 653999-131-R-J2-PDC complex spheroid viability
Assay: Anticancer human tumor 653999-131-R-J2-PDC patient-derived lung adenocarcinoma cell line growth inhibition
Settings: for viability, T/C: stronger effect = lower value
Method in brief: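 Multicellular complex spheroids of tumor cells with human endothelial cells (HUVEC) and mesenchymal stem cells; the LSD1 inhibitor iadademstat was combined with standard-of-care or investigational agents. Top concentration at or near clinical Cmax, half-log dilutions; final DMSO ≤0.25%.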

[1] = curve of first compound, second compound 0.1 µM
[2] = curve of first compound, second compound 0.316 µM
[3] = curve of first compound, second compound 1 µM
[4] = curve of first compound, second compound 3.16 µM
[5] = curve of first compound, second compound 10 µM
[6] = second compound 0.1 µM, first compound 0.00316 µM
[7] = second compound 0.1 µM, first compound 0.01 µM
[8] = second compound 0.1 µM, first compound 0.0316 µM
[9] = second compound 0.1 µM, first compound 0.1 µM
[10] = second compound 0.316 µM, first compound 0.00316 µM
[11] = second compound 0.316 µM, first compound 0.01 µM
[12] = second compound 0.316 µM, first compound 0.0316 µM
[13] = second compound 0.316 µM, first compound 0.1 µM
[14] = second compound 1 µM, first compound 0.00316 µM
[15] = second compound 1 µM, first compound 0.01 µM
[16] = second compound 1 µM, first compound 0.0316 µM
[17] = second compound 1 µM, first compound 0.1 µM
[18] = second compound 3.16 µM, first compound 0.00316 µM
[19] = second compound 3.16 µM, first compound 0.01 µM
[20] = second compound 3.16 µM, first compound 0.0316 µM
[21] = second compound 3.16 µM, first compound 0.1 µM
[22] = second compound 10 µM, first compound 0.00316 µM
[23] = second compound 10 µM, first compound 0.01 µM
[24] = second compound 10 µM, first compound 0.0316 µM
[25] = second compound 10 µM, first compound 0.1 µM
[26] = second compound 0.1 µM, first compound 0.000316 µM
[27] = second compound 0.1 µM, first compound 0.001 µM
[28] = second compound 0.316 µM, first compound 0.000316 µM
[29] = second compound 0.316 µM, first compound 0.001 µM
[30] = second compound 1 µM, first compound 0.000316 µM
[31] = second compound 1 µM, first compound 0.001 µM
[32] = second compound 3.16 µM, first compound 0.000316 µM
[33] = second compound 3.16 µM, first compound 0.001 µM
[34] = second compound 10 µM, first compound 0.000316 µM
[35] = second compound 10 µM, first compound 0.001 µM
[36] = second compound 0.1 µM, first compound 0.000949 µM
[37] = second compound 0.1 µM, first compound 0.003 µM
[38] = second compound 0.1 µM, first compound 0.00949 µM
[39] = second compound 0.1 µM, first compound 0.03 µM
[40] = second compound 0.1 µM, first compound 0.0949 µM
[41] = second compound 0.1 µM, first compound 0.3 µM
[42] = second compound 0.316 µM, first compound 0.000949 µM
[43] = second compound 0.316 µM, first compound 0.003 µM
[44] = second compound 0.316 µM, first compound 0.00949 µM
[45] = second compound 0.316 µM, first compound 0.03 µM
[46] = second compound 0.316 µM, first compound 0.0949 µM
[47] = second compound 0.316 µM, first compound 0.3 µM
[48] = second compound 1 µM, first compound 0.000949 µM
[49] = second compound 1 µM, first compound 0.003 µM
[50] = second compound 1 µM, first compound 0.00949 µM
[51] = second compound 1 µM, first compound 0.03 µM
[52] = second compound 1 µM, first compound 0.0949 µM
[53] = second compound 1 µM, first compound 0.3 µM
[54] = second compound 3.16 µM, first compound 0.000949 µM
[55] = second compound 3.16 µM, first compound 0.003 µM
[56] = second compound 3.16 µM, first compound 0.00949 µM
[57] = second compound 3.16 µM, first compound 0.03 µM
[58] = second compound 3.16 µM, first compound 0.0949 µM
[59] = second compound 3.16 µM, first compound 0.3 µM
[60] = second compound 10 µM, first compound 0.000949 µM
[61] = second compound 10 µM, first compound 0.003 µM
[62] = second compound 10 µM, first compound 0.00949 µM
[63] = second compound 10 µM, first compound 0.03 µM
[64] = second compound 10 µM, first compound 0.0949 µM
[65] = second compound 10 µM, first compound 0.3 µM
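Note: spheroids exposed to agents for seven days before readout.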

COc1cc(Nc2ncc3c(n2)-c2ccc(Cl)cc2C(c2c(F)cccc2OC)=NC3)ccc1C(=O)O + NC1CCC(NC2CC2c2ccccc2)CC1
IC50 [1]: > 1000 nM
IC50 [2]: > 1000 nM
IC50 [3]: > 1000 nM
IC50 [4]: > 1000 nM
IC50 [5]: > 1000 nM
viability, T/C [6]: 78.7%
viability, T/C [7]: 89.2%
viability, T/C [8]: 74.2%
viability, T/C [9]: 78.5%
viability, T/C (second compound 0.1 µM, first compound 0.316 µM): 73.7%
viability, T/C (second compound 0.1 µM, first compound 1 µM): 76.1%
viability, T/C [10]: 85.4%
viability, T/C [11]: 72.8%
viability, T/C [12]: 63.9%
viability, T/C [13]: 68.1%
viability, T/C (second compound 0.316 µM, first compound 0.316 µM): 71.3%
viability, T/C (second compound 0.316 µM, first compound 1 µM): 75.6%
viability, T/C [14]: 76.6%
viability, T/C [15]: 84.3%
viability, T/C [16]: 78.6%
viability, T/C [17]: 69.2%
viability, T/C (second compound 1 µM, first compound 0.316 µM): 61.9%
viability, T/C (second compound 1 µM, first compound 1 µM): 74.9%
viability, T/C [18]: 92.2%
viability, T/C [19]: 73.9%
viability, T/C [20]: 79.2%
viability, T/C [21]: 65.6%
viability, T/C (second compound 3.16 µM, first compound 0.316 µM): 79.7%
viability, T/C (second compound 3.16 µM, first compound 1 µM): 72%
viability, T/C [22]: 92.9%
viability, T/C [23]: 81.4%
viability, T/C [24]: 71.7%
viability, T/C [25]: 71.2%
viability, T/C (second compound 10 µM, first compound 0.316 µM): 60.9%
viability, T/C (second compound 10 µM, first compound 1 µM): 79.7%

CC(C)CC(NC(=O)C(Cc1ccccc1)NC(=O)c1cnccn1)B(O)O (configuration not stated) + NC1CC1c1ccc(-c2cccc(O)c2)cc1
IC50 [1]: 0.832 nM
IC50 [2]: 0.904 nM
IC50 [3]: 0.786 nM
IC50 [4]: 0.979 nM
IC50 [5]: 0.589 nM
viability, T/C [26]: 122%
viability, T/C [27]: 35.4%
viability, T/C [6]: 12.9%
viability, T/C [7]: 4.58%
viability, T/C [8]: 1.38%
viability, T/C [9]: 2.17%
viability, T/C [28]: 110%
viability, T/C [29]: 44.2%
viability, T/C [10]: 11.4%
viability, T/C [11]: 3.25%
viability, T/C [12]: 1.54%
viability, T/C [13]: 1.44%
viability, T/C [30]: 109%
viability, T/C [31]: 34%
viability, T/C [14]: 11.6%
viability, T/C [15]: 3.96%
viability, T/C [16]: 0.99%
viability, T/C [17]: 4.31%
viability, T/C [32]: 103%
viability, T/C [33]: 48.9%
viability, T/C [18]: 16%
viability, T/C [19]: 3.4%
viability, T/C [20]: 1.41%
viability, T/C [21]: 2.37%
viability, T/C [34]: 74.4%
viability, T/C [35]: 29.1%
viability, T/C [22]: 9.61%
viability, T/C [23]: 3.68%
viability, T/C [24]: 1.33%
viability, T/C [25]: 2.12%

CC[C@@]1(O)C(=O)OCc2c1cc1n(c2=O)Cc2cc3c(CN(C)C)c(O)ccc3nc2-1 + NC1CCC(NC2CC2c2ccccc2)CC1
IC50 [1]: 4.65 nM
IC50 [2]: 5.23 nM
IC50 [3]: 4.8 nM
IC50 [4]: 5.51 nM
IC50 [5]: 6.87 nM
viability, T/C [26]: 89.3%
viability, T/C [27]: 85.3%
viability, T/C [6]: 50.7%
viability, T/C [7]: 40.2%
viability, T/C [8]: 27.5%
viability, T/C [9]: 19.8%
viability, T/C [28]: 87%
viability, T/C [29]: 80.4%
viability, T/C [10]: 57.9%
viability, T/C [11]: 37.9%
viability, T/C [12]: 26.2%
viability, T/C [13]: 18%
viability, T/C [30]: 94.7%
viability, T/C [31]: 73.2%
viability, T/C [14]: 61.6%
viability, T/C [15]: 35.9%
viability, T/C [16]: 25.1%
viability, T/C [17]: 21.6%
viability, T/C [32]: 78.7%
viability, T/C [33]: 75.3%
viability, T/C [18]: 52.7%
viability, T/C [19]: 44.1%
viability, T/C [20]: 29.9%
viability, T/C [21]: 20.7%
viability, T/C [34]: 91.9%
viability, T/C [35]: 77.9%
viability, T/C [22]: 63.9%
viability, T/C [23]: 44.3%
viability, T/C [24]: 27.1%
viability, T/C [25]: 19.7%

CC(C)c1c(-c2ccccc2)nc2c(C#N)c[nH]n2c1=O
viability, T/C (compound 0.0316 µM): 98.4% and 88.9%
viability, T/C (compound 0.1 µM): 107% and 94.6%
viability, T/C (compound 0.316 µM): 108% and 93.6%
viability, T/C (compound 1 µM): 116% and 98.2%
viability, T/C (compound 3.16 µM): 109% and 88.9%
viability, T/C (compound 10 µM): 94.7% and 88.9%
IC50 (curve of compound): > 10000 nM

Nc1ccn(C2OC(CO)C(O)C2(F)F)c(=O)n1 (configuration not stated) + NC1CC1c1ccc(-c2cccc(O)c2)cc1
IC50 [1]: 133 nM
IC50 [2]: 37.9 nM
IC50 [3]: 24.9 nM
IC50 [4]: 68.3 nM
IC50 [5]: > 300 nM
viability, T/C [36]: 105%
viability, T/C [37]: 92.4%
viability, T/C [38]: 67.2%
viability, T/C [39]: 61.3%
viability, T/C [40]: 43.6%
viability, T/C [41]: 52.2%
viability, T/C [42]: 82.1%
viability, T/C [43]: 77.2%
viability, T/C [44]: 75.6%
viability, T/C [45]: 51.2%
viability, T/C [46]: 43.5%
viability, T/C [47]: 47%
viability, T/C [48]: 75.1%
viability, T/C [49]: 80.9%
viability, T/C [50]: 64.7%
viability, T/C [51]: 48.6%
viability, T/C [52]: 45.2%
viability, T/C [53]: 44.9%
viability, T/C [54]: 83.4%
viability, T/C [55]: 74.1%
viability, T/C [56]: 63.4%
viability, T/C [57]: 57.4%
viability, T/C [58]: 47.3%
viability, T/C [59]: 39.7%
viability, T/C [60]: 76%
viability, T/C [61]: 70.8%
viability, T/C [62]: 68.9%
viability, T/C [63]: 53.1%
viability, T/C [64]: 55.4%
viability, T/C [65]: 51.5%

Nc1ccn(C2OC(CO)C(O)C2(F)F)c(=O)n1 (configuration not stated) + NC1CCC(NC2CC2c2ccccc2)CC1
IC50 [1]: 8.36 nM
IC50 [2]: 2.64 nM
IC50 [3]: 7.34 nM
IC50 [4]: 6.64 nM
IC50 [5]: 23 nM
viability, T/C [36]: 64.2%
viability, T/C [37]: 62.6%
viability, T/C [38]: 46.7%
viability, T/C [39]: 38.7%
viability, T/C [40]: 34.5%
viability, T/C [41]: 30.1%
viability, T/C [42]: 58.4%
viability, T/C [43]: 45.5%
viability, T/C [44]: 47.8%
viability, T/C [45]: 30.8%
viability, T/C [46]: 30.6%
viability, T/C [47]: 27.3%
viability, T/C [48]: 56%
viability, T/C [49]: 55.8%
viability, T/C [50]: 48.4%
viability, T/C [51]: 36.6%
viability, T/C [52]: 34.8%
viability, T/C [53]: 31.3%
viability, T/C [54]: 70.5%
viability, T/C [55]: 52.2%
viability, T/C [56]: 47.5%
viability, T/C [57]: 45%
viability, T/C [58]: 34.8%
viability, T/C [59]: 33.1%
viability, T/C [60]: 65.2%
viability, T/C [61]: 64.7%
viability, T/C [62]: 59%
viability, T/C [63]: 47.8%
viability, T/C [64]: 40.4%
viability, T/C [65]: 43.8%
